Experimental data as given in patent US20220211795A1 (Chenland Nutritionals Inc., priority 2021, published 2022).

How the values were obtained:
glioma GL261 cells = assay: Cytotoxicity experiment (CCK8); format: cell-based; settings: 1.172-150 μg/mL, 4 h drug then 20 h culture
Experimental: Gl261 cells in logarithmic growth phase are uniformly inoculated into sterile 96-well plates with 2×10^3 cells per well, and no cells are seeded around the plates, then 100 μL […] is added into each well and cultured under the condition of 37° C. and 5% CO2 for 24 h; remove the culture medium and add 100 μL of drug-containing medium (concentration gradient set at […], 75.000 μg/mL, 37.500 μg/mL, 18.750 μg/mL, 9.375 μg/mL, 4.688 μg/mL, 2.344 μg/mL, and 1.172 μg/mL), the drug-containing medium is removed after culture for 4 h, and 100 μL of medium is added to each well for further culture for 20 h. The culture medium is removed, and culture medium containing 10% CCK8 is added. After incubation for 1 h, the absorbance is measured with a microplate reader, and the cell viability is determined by the following formula […].

Particle size detection = format: physicochemical
Excerpt: 1.2 Particle Size Detection

[1] = Potential detection (zeta potential); format: physicochemical

Q: With COc1cc(/C=C/C(=O)CC(=O)/C=C/c2ccc(O)c(OC)c2)ccc1O [Free Curcumin, Curcumin] as the molecule, how does the “toxicity to GL261 cells” value (glioma GL261 cells) read?
A: The value was “no obvious toxicity”.

Q: And the PDI (Particle size detection)?
A: Its PDI is 0.545.

Q: What about the Hydrodynamic diameter (Particle size detection; 0.0309 g curcumin+10 ml water suspension) of the same molecule?
A: The Hydrodynamic diameter was 4.053 μm.

Q: And the Average zeta potential [1]?
A: The Average zeta potential was −36.5 mv.
